Measured values: patent publication US10774080B2, “Pyrimidine compound as JAK kinase inhibitor” (THERAVANCE BIOPHARMA R&D IP, LLC, priority 2017, dated 2020)

Legend:
[1] = Dynamic moisture sorption (DMS); format: physicochemical; settings: for total moisture uptake between 5 and 90% RH: 25° C.
Method: Dynamic moisture sorption (DMS) measurement was performed using a VTI atmospheric microbalance, SGA-100 system (VTI Corp., Hialeah, Fla. 33016). A weighed sample was used and the humidity was lowest possible value (close to 0% RH) at the start of the analysis. The DMS analysis consisted of an initial drying step (0% RH) for 120 minutes, followed by two cycles of sorption and desorption with a scan rate of 5% RH/step over the humidity range of 5% RH to 90% RH. The DMS run was performed isothermally at 25° C. The total moisture uptake between 5 and 90% RH was 1.96%.
The DMS analysis consisted of an initial drying step (0% RH) for 120 minutes, followed by two cycles of sorption and desorption with a scan rate of 5% RH/step over the humidity range of 5% RH to 90% RH. The DMS run was performed isothermally at 25° C. The total moisture uptake between 5 and 90% RH was about 0.02%.

in vitro = in vitro ADME; settings: human, microsomes, pH 7.4, HLM Clint
Method: Assay 17: Human Liver Microsome Assay The objective of this assay was to assess the metabolic stability of test compounds in an in vitro human liver sub-fraction. Human liver microsomes obtained from Bioreclamation-IVT (Baltimore, Md.) were thawed on ice and diluted into 0.1M potassium phosphate buffer pH 7.4 to yield final incubation protein concentrations of 0.1 mg/mL. […] Incubations were conducted at 37° C. temperature and test aliquots were taken at time points 0, 5, 8, 15, 30 and 45 minutes. […] The resulting samples were injected onto an LC-MS/MS system for analysis. For each incubation, the peak area of the analytes in each t0 aliquot was set to 100% and the peak areas from subsequent time point aliquots were converted to percentage of parent compound remaining relative to t0. The percentage of parent compound remaining was converted to natural log scale and plotted versus time in minutes. A linear regression analysis was performed for the initial decline of the parent disappearance profile and a formula for the best-fit line determined. The slope of the resultant line was normalized to protein concentration in mg/mL protein or number of cells/mL and CLint was calculated as follows for liver microsomes: CLint (μL·min^−1·mg^−1)=(Slope×1000)/[protein,mg/mL]

Row | SMILES | hygroscopicity (in words) [1] | total moisture uptake between 5 and 90% RH [1] | microsomal CLint at 0.1 μM (in vitro)
1 | CCS(=O)(=O)N1[C@@H]2CCC[C@H]1C[C@H](N(C)c1nc(CO)c(F)c(Nc3cc(C)[nH]n3)n1)C2 [Form II] | non-hygroscopic | about 0.02% | 
2 | CCS(=O)(=O)N1[C@@H]2CCC[C@H]1C[C@H](N(C)c1nc(CO)c(F)c(Nc3cc(C)[nH]n3)n1)C2 [Form I] |  | 1.96% | 
3 | CCS(=O)(=O)N1[C@@H]2CCC[C@H]1C[C@H](N(C)c1nc(Nc3cc(C)[nH]n3)cc(C(N)=O)n1)C2 [Compound C-1, 2-(((1R,3s,5S)-9-(ethylsulfonyl)-9-azabicyclo[3.3.1]nonan-3-yl)(methyl)amino)-6-((5-methyl-1H-pyrazol-3-yl)amino)pyrimidine-4-carboxamide, reference compound] |  |  | 6 µL/min/mg
4 | Cc1cc(Nc2cc(CO)nc(N(C)[C@@H]3C[C@H]4CC[C@@H](C3)N4CCC#N)n2)n[nH]1 [Compound C-2, 3-((1R,3s,5S)-3-((4-(hydroxymethyl)-6-((5-methyl-1H-pyrazol-3-yl)amino)pyrimidin-2-yl)(methyl)amino)-8-azabicyclo[3.2.1]octan-8-yl)propanenitrile, reference compound] |  |  | 12 µL/min/mg
